{"source": "paper PMC8434884", "about": "(Journal of medicinal chemistry, 2020)", "key": {"[1]": {"target": "T1, human 5-HT2CR (unedited INI isoform) (Homo sapiens, UniProt P28335)", "T1 sequence (P28335 33-458)": "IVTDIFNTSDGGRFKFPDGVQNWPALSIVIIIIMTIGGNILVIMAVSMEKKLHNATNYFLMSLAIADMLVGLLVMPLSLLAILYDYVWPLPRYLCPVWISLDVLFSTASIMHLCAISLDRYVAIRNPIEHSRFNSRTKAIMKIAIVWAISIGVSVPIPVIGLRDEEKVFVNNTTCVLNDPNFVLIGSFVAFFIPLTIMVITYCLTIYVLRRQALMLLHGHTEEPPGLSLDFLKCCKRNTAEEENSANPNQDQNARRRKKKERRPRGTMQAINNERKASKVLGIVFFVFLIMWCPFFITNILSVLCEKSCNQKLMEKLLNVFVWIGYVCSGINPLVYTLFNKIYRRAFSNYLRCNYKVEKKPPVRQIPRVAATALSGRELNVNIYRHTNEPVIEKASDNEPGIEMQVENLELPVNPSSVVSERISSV", "conditions": "1 nM, 5-HT-induced Cai2+ release, h5-HT2CR-CHO cells"}, "[2]": {"target": "T1, human 5-HT2CR (unedited INI isoform)", "conditions": "cited from earlier work"}, "[3]": {"target": "DAT (Homo sapiens, UniProt Q01959)", "sequence (Q01959 whole entry)": "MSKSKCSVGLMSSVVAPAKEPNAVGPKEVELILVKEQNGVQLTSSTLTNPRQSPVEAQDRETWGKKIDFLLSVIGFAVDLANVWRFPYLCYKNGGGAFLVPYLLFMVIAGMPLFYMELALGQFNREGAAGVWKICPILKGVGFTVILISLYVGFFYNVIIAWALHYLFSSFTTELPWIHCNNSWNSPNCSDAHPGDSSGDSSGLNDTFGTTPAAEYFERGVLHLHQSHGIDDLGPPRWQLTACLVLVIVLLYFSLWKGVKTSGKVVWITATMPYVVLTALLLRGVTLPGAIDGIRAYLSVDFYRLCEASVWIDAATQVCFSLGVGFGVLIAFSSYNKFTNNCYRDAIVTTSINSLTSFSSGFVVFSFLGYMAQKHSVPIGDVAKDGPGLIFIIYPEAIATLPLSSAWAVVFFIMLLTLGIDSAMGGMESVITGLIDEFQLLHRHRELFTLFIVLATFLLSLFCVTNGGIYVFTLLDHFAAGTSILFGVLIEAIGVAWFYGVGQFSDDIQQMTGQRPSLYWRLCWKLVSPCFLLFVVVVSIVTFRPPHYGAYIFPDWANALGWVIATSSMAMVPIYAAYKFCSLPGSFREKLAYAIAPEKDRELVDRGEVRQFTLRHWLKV", "conditions": "10 μM; cited from earlier work"}, "[4]": {"target": "T2, α 2A (Homo sapiens, UniProt P08913)", "T2 sequence (P08913 1-465)": "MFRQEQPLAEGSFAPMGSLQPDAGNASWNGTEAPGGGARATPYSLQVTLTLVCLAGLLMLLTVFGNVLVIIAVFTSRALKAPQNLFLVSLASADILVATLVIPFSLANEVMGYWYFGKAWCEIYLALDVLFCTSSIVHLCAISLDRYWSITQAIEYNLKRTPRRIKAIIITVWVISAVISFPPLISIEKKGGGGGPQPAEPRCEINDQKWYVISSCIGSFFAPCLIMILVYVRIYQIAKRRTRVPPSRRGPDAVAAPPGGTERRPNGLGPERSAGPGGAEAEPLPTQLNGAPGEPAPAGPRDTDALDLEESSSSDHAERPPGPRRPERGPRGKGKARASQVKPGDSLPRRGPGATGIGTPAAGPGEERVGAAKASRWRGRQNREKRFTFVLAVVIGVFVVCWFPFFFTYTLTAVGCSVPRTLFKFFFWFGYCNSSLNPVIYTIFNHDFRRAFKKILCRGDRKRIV", "conditions": "10 μM; cited from earlier work"}, "[5]": {"tested_on": "rats", "conditions": "cited from earlier work"}, "[6]": {"tested_on": "rats", "conditions": "cited from earlier work", "remark": "listed apart in the source"}, "[7]": {"target": "T3, α 2B (Homo sapiens, UniProt P18089)", "T3 sequence (P18089 1-450)": "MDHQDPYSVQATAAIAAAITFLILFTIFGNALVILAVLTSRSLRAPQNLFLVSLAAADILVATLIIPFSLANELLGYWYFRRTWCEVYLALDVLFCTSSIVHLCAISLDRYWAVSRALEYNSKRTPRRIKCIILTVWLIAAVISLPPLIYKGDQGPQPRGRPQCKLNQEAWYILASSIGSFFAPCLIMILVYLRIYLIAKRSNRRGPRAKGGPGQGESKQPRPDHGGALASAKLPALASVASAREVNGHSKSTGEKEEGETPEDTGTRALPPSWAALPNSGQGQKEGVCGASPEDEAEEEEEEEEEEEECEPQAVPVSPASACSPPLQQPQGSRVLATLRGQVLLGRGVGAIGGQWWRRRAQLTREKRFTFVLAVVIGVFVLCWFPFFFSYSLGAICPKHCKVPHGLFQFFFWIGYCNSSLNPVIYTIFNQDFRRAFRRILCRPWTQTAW", "conditions": "10 μM; cited from earlier work"}, "[8]": {"target": "D3 (Homo sapiens, UniProt P35462)", "sequence (P35462 whole entry)": "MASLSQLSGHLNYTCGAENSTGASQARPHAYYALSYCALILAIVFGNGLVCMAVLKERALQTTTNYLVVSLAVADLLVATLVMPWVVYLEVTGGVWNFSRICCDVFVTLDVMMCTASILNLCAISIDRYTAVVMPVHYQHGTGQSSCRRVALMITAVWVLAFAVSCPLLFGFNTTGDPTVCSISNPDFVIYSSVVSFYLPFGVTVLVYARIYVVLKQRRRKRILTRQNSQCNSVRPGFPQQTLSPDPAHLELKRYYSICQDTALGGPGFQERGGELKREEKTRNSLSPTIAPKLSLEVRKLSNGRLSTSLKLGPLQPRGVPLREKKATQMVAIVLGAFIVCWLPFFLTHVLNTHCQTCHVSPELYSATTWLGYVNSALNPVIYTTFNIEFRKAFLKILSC", "conditions": "10 μM; cited from earlier work"}, "[9]": {"tested_on": "male Sprague–Dawley rats", "assay": "WAY163909 versus saline two-lever drug discrimination assay", "format": "in vivo, rat"}, "[10]": {"tested_on": "male Sprague–Dawley rats", "conditions": "previous study; cited from earlier work"}}}
{"smiles": "O=C(NC(CO)CO)[C@@H]1C[C@H](c2ccccc2)CCN1", "note": "(racemic) [Compound 14, (2,4-cis)-N-(1,3-Dihydroxypropan-2-yl)-4-phenylpiperidine-2-carboxamide]", "values": [{"measurement": "5-HT2CR positive allosteric modulator activity (in words)", "setting": "[1]", "value": "did promote PAM activity"}]}
{"smiles": "O=C(NC(CO)CO)[C@@H]1C[C@H](C2CCCCC2)CCN1", "note": "(racemic) [Compound 15, (2,4-cis)-4-Cyclohexyl-N-(1,3-dihydroxypropan-2-yl)piperidine-2-carboxamide]", "values": [{"measurement": "5-HT2CR positive allosteric modulator activity (in words)", "setting": "[1]", "value": "did not result in positive allosteric effects"}]}
{"smiles": "O=C(NCCN1CCOCC1)[C@@H]1C[C@H](c2ccccc2)CCN1", "note": "(racemic) [Compound 16, (2,4-cis)-N-(2-Morpholinoethyl)-4-phenylpiperidine-2-carboxamide]", "values": [{"measurement": "5-HT2CR positive allosteric modulator activity (in words)", "setting": "[1]", "value": "did not result in positive allosteric effects"}]}
{"smiles": "O=C(NCCN1CCOCC1)[C@@H]1C[C@H](C2CCCCC2)CCN1", "note": "(racemic) [Compound 17, (2,4-cis)-4-Cyclohexyl-N-(2-morpholinoethyl)piperidine-2-carboxamide]", "values": [{"measurement": "5-HT2CR positive allosteric modulator activity (in words)", "setting": "[1]", "value": "did not result in positive allosteric effects"}]}
{"smiles": "O=C(NCCN1CCOCC1)[C@@H]1C[C@H](CCC2CCCCC2)CCN1", "note": "(racemic) [Compound 34, (2,4-cis)-4-(2-Cyclohexylethyl)-N-(2-morpholinoethyl)piperidine-2-carboxamide]", "values": [{"measurement": "5-HT2CR positive allosteric modulator activity (in words)", "setting": "[1]", "value": "did not produce PAM effects"}]}
{"smiles": "O=C(NCCCN1CCOCC1)[C@@H]1C[C@H](CCC2CCCCC2)CCN1", "note": "(racemic) [Compound 35, (2,4-cis)-4-(2-Cyclohexylethyl)-N-(3-morpholinopropyl)-piperidine-2-carboxamide]", "values": [{"measurement": "5-HT2CR positive allosteric modulator activity (in words)", "setting": "[1]", "value": "did produce PAM effects"}]}
{"smiles": "O=C(NCCN1CCOCC1)[C@@H]1C[C@H](CCc2ccccc2)CCN1", "note": "(racemic) [Compound 36, (2,4-cis)-N-(2-Morpholinoethyl)-4-phenethylpiperidine-2-carboxamide]", "values": [{"measurement": "5-HT2CR positive allosteric modulator activity (in words)", "setting": "[1]", "value": "did not produce PAM effects"}]}
{"smiles": "O=C(NCCCN1CCOCC1)[C@@H]1C[C@H](CCc2ccccc2)CCN1", "note": "(racemic) [Compound 37, (2,4-cis)-N-(3-Morpholinopropyl)-4-phenethylpiperidine-2-carboxamide]", "values": [{"measurement": "5-HT2CR positive allosteric modulator activity (in words)", "setting": "[1]", "value": "did produce PAM effects"}]}
{"smiles": "O=C(NC(CO)C(O)c1ccccc1)C1C[C@@H](c2ccccc2)CCN1", "note": "(stereo in doubt) [Compound (2R,4S)-11, (2S,4S)-N-((1S,2S)-1,3-Dihydroxy-1-phenylpropan-2-yl)-4-phenylpiperidine-2-carboxamide]", "values": [{"measurement": "5-HT2CR positive allosteric modulator activity (in words)", "setting": "[1]", "value": "modest allosteric activity"}]}
{"smiles": "CCCCCCCCCCC[C@@H]1CCN[C@H](C(=O)N[C@@H]([C@H]2O[C@H](SC)[C@H](O)[C@@H](O)[C@H]2O)[C@H](C)Cl)C1.Cl", "note": "[Compound 1]", "values": [{"measurement": "shift of the 5-HT-evoked Cai2+ response curve", "setting": "[2]; titration studies", "value": "evoked a leftward shift"}]}
{"smiles": "CCCCCCCCCCC[C@@H]1CCN[C@H](C(=O)NCC(O)CO)C1", "note": "(stereo partly drawn) [Compound 3]", "values": [{"measurement": "inhibition of radioligand binding", "setting": "[3]", "value": 66.3, "unit": "%"}, {"measurement": "inhibition of radioligand binding", "setting": "[4]", "value": 85.1, "unit": "%"}, {"measurement": "effect on locomotor activity", "setting": "[5]", "value": "decrease locomotor activity"}, {"measurement": "effect on cocaine-seeking during abstinence from cocaine self-administration", "setting": "[6]", "value": "suppress cocaine-seeking"}, {"measurement": "inhibition of radioligand binding", "setting": "[7]", "value": 80.7, "unit": "%"}, {"measurement": "Emax RFU (% 5-HT)", "setting": "[2]; compound 1 nM, 5-HT-induced Cai2+ release, h5-HT2CR-CHO cells", "value": "123.2 ± 4.1", "unit": "% 5-HT"}, {"measurement": "effect on Cai2+ release in the absence of 5-HT", "setting": "[2]; h5-HT2CR-CHO cells", "value": "no effect on Cai^2+ release"}, {"measurement": "inhibition of radioligand binding", "setting": "[8]", "value": 71.7, "unit": "%"}]}
{"smiles": "Cc1cc2c(cc1Cl)N(C(=O)Nc1ccc(Oc3cccnc3C)nc1)CC2.Cl.Cl", "note": "[SB242084, 6-chloro-5-methyl-1-[[2-(2-methylpyrid-3-yloxy)pyrid-5-yl]carbamoyl]indoline dihydrochloride, reference compound]", "values": [{"measurement": "blockade of substitution of 12 (2 mg/kg) plus WAY163909 (0.5 mg/kg)", "setting": "[9]; SB242084 0.5 mg/kg pretreatment, 13/13 rats", "value": "completely prevented the substitution"}]}
{"smiles": "c1cc2c3c(c1)[C@H]1CCC[C@H]1N3CCNC2", "note": "[WAY163909, (7b-R,10a-R)-1,2,3,4,8,9,10,10a-octahydro-7bH-cyclopenta[b][1,4] diazepino[6,7,1hi]indole, reference compound]", "values": [{"measurement": "dose predicted to result in 50% drug-associated responses (ED50)", "setting": "[10]", "value": 0.53, "unit": "mg/kg"}, {"measurement": "percentage of rats selecting the WAY163909-associated lever", "setting": "[9]; WAY163909 0.125 mg/kg ip, substitution test, n = 13", "value": 0, "unit": "%"}]}
